Patent US7009053B2, “Quinoline derivatives as caspase-3 inhibitor, preparation for producing the same and pharmaceutical composition comprising the same” (Yungjin Pharmaceuticals Co., Ltd., priority 2002, dated 2006)

Target: T1, human recombinant caspase-3 enzyme (Homo sapiens, UniProt P42574)
T1 construct: each cDNA encoding p12 and p17 subunits of caspase-3 was PCR-amplified respectively and subcloned into a pET3-a expression vector; made in house; host or cells: E. coli BL21 (DE3), pET3-a vector
T1 sequence (P42574 29-175 limits assumed): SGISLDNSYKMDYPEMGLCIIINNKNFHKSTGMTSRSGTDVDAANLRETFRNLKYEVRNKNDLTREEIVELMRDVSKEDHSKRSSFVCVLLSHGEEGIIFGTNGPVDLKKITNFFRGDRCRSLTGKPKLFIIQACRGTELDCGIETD
T1 sequence (P42574 176-277 limits assumed): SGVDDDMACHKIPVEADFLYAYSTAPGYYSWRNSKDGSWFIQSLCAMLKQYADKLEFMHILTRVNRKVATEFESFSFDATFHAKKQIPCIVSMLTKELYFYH
Assay: Enzyme assay of caspase-3 inhibition (fluorogenic Ac-DEVD-AFC substrate)
Format: biochemical
Details: for IC50: caspase-3, Table 1, tested at 2, 20 or 200 uM, read-out: IC50; for inhibitory activity against caspase-3 (in words): compared to the reference compound
Procedure: The active form of human recombinant caspase-3 enzyme was prepared from Escherichia coli (E.coli) heterologous expression system as described previously (Rotonda J. et al., Nat Struct Biol 3(7): 617–25, 1996). Briefly, each cDNA encoding p12 and p17 subunits of caspase-3 was PCR-amplified respectively and subcloned into a pET3-a expression vector (Novagen), which was followed by transfection into E. coli strain BL21 (DE3). The bacterial cultures (0.5 liters for each transfectant) were grown at 37° C. until logarithmic phase of cell growth and isopropyl-1-thio-β-D-galactopyranoside (IPTC) (Pharmacia) was then added to a final concentration of 0.5 mM. After 3 hr of incubation, the bacteria were pelleted and lysed in a lysis buffer (20 mM Tris hydrochloride pH 8.0, 1 mM EDTA, 2 mM dithiothreitol (DTT), 100 mM NaCl, 200 ug/ml of lysozyme) through sonication. After centrifugation, the pellets from each transfectants were dissolved in 6 M urea and were mixed and rapidly diluted 50 fold in 100 mM HEPES/KOH (pH 7.5), 10% sucrose, 0.1% CHAPS, 0.5 M NaCl, 10 mM DTT. The concentration of protein was determined with the Bradford method (Bio-Rad), with bovine serum albumin as the standard. To verify whether expected size of proteins were obtained, the cell lysates from each cDNA transfectants were analyzed on 14% SDS PAGE and visualized with Coomassie blue staining.
200 ul of the following assay solution was contained in each well of 96-well plate: 20 mM HEPES/KOH (pH 7.5), 10% sucrose, 10 mM DTT, 0.2 mM EDTA, 0.1% CHAPS, 200 ng of enzymes, and 2.5 uM of the substrate. The fluorogenic substrate […]-Asp-Glu-Val-Asp-7-amino-4-trifluoromethylcoumarin (Ac-DEVD-AFC) was purchased from Sigma (St Louis, Mo.) and dissolved in DMSO as a 2.5 mM stock solution and kept at −20° C. before use.
After 1 hr incubation at 37° C., the release of AFC (7-amino-4-trifluoromethyl-coumarin) was monitored in a fluorometric plate reader (Victor 1420). The excitation and emission wavelengths were 400 nm and 510 nm, respectively. The inhibitory effects of compounds on enzyme activities were determined with 2, 20 or 200 uM concentrations of the test compound run in triplicate tubes, and isotherms from three assays were calculated by computerized nonlinear regression analysis (GraphPad Prism Program, San Diego, Calif.) to yield IC50 values.

## CN1C(=O)C(=O)c2cc(S(=O)(=O)N3CCC[C@H]3COc3ccccc3)ccc21 [(S)-1-methyl-5-{1-[2-(phenoxymethyl)pyrrolidinyl]sulfonyl} isatin, reference compound]
caspase-3 activity, at 20 uM
  %-Inhibition: 76.8%

## CCOC(=O)c1cnc2c(N)cccc2c1NCc1ccccc1 [Example 17, 8-Amino-4-benzylamino-quinoline-3-carboxylic acid ethyl ester]
  IC50: 14.4 µM
caspase-3 activity, at 20 uM
  inhibition at 20 µM: 81.7%

## CCOC(=O)c1cnc2c(N)cccc2c1NC1CCCCC1 [Example 18, 8-Amino-4-cyclohexylamino-quinoline-3-carboxylic acid ethyl ester]
  IC50: 14.1 µM
caspase-3 activity, at 20 uM
  inhibition at 20 µM: 84.7%

## CCOC(=O)c1cnc2c(N)cccc2c1NCc1cccc2ccccc12 [Example 19, 8-Amino-4-[(naphthalen-1-ylmethyl)-amino]-quinoline-3-carboxylic acid ethyl ester]
  IC50: 14.9 µM
caspase-3 activity, at 20 uM
  inhibition at 20 µM: 84.9%

## CCOC(=O)c1cnc2c(N)cccc2c1NCc1ccccn1 [Example 20, 8-Amino-4-[(pyridin-2-ylmethyl)-amino]-quinoline-3-carboxylic acid ethyl ester]
  IC50: 13.2 µM
  inhibitory activity against caspase-3 (in words): superior activity
caspase-3 activity, at 20 uM
  inhibition at 20 µM: 90.1%

## CCOC(=O)c1cnc2c(N)cccc2c1NCc1cccs1 [Example 21, 8-Amino-4-[(thiophen-2-ylmethyl)-amino]-quinoline-3-carboxylic acid ethyl ester]
  IC50: 19.2 µM
caspase-3 activity, at 20 uM
  inhibition at 20 µM: 78%

## CCOC(=O)c1cnc2c(N)cccc2c1NCc1ccc2c(c1)OCO2 [Example 23, 8-Amino-4-[(benzo[1,3]dioxol-5-ylmethyl)-amino]-quinoline-3-carboxylic acid ethyl ester]
  IC50: 14.3 µM
caspase-3 activity, at 20 uM
  inhibition at 20 µM: 86%

## CCOC(=O)c1cnc2c(N)cccc2c1NC(CC)COC (centres unmarked) [Example 25, 8-Amino-4-(1-methoxymethyl-propylamino)-quinoline-3-carboxylic acid ethyl ester]
  IC50: 16.5 µM
caspase-3 activity, at 20 uM
  inhibition at 20 µM: 88.8%

## CCCCNc1c(C(=O)OCC)cnc2c(N)cccc12 [Example 26, 8-Amino-4-butylamino-quinoline-3-carboxylic acid ethyl ester]
  IC50: 15.4 µM
caspase-3 activity, at 20 uM
  inhibition at 20 µM: 88.9%

## CCOC(=O)c1cnc2c(N)cccc2c1NCC(C)C [Example 27, 8-Amino-4-isobutylamino-quinoline-3-carboxylic acid ethyl ester]
  IC50: 15.9 µM
caspase-3 activity, at 20 uM
  inhibition at 20 µM: 87.8%

## CCOC(=O)c1cnc2c(N)cccc2c1NC(C)C [Example 28, 8-Amino-4-isopropylamino-quinoline-3-carboxylic acid ethyl ester]
  IC50: 17.6 µM
caspase-3 activity, at 20 uM
  inhibition at 20 µM: 85.2%

## CCOC(=O)c1cnc2c(N)cccc2c1NCc1ccccc1F [Example 29, 8-Amino-4-(2-fluoro-benzylamino)-quinoline-3-carboxylic acid ethyl ester]
  IC50: 18.8 µM
caspase-3 activity, at 20 uM
  inhibition at 20 µM: 78.8%

## CCOC(=O)c1cnc2c(N)cccc2c1NCc1cccc(F)c1 [Example 30, 8-Amino-4-(3-fluoro-benzylamino)-quinoline-3-carboxylic acid ethyl ester]
  IC50: 19.1 µM
caspase-3 activity, at 20 uM
  inhibition at 20 µM: 76.9%

## CCOC(=O)c1cnc2c(N)cccc2c1NCCCOC(C)C [Example 31, 8-Amino-4-(3-isopropoxy-propylamino)-quinoline-3-carboxylic acid ethyl ester]
  IC50: 13.5 µM
  inhibitory activity against caspase-3 (in words): superior activity
caspase-3 activity, at 20 uM
  inhibition at 20 µM: 92.5%

## CCOC(=O)c1cnc2c(N)cccc2c1NCc1ccccc1OC [Example 32, 8-Amino-4-(2-methoxy-benzylamino)-quinoline-3-carboxylic acid ethyl ester]
  IC50: 16.9 µM
caspase-3 activity, at 20 uM
  inhibition at 20 µM: 82.9%

## CCOC(=O)c1cnc2c(N)cccc2c1NCc1ccc(OC)cc1 [Example 33, 8-Amino-4-(4-methoxy-benzylamino)-quinoline-3-carboxylic acid ethyl ester]
  IC50: 15.8 µM
caspase-3 activity, at 20 uM
  inhibition at 20 µM: 86.5%

## CCOC(=O)c1cnc2c(N)cccc2c1NCc1cccc(OC)c1 [Example 34, 8-Amino-4-(3-methoxy-benzylamino)-quinoline-3-carboxylic acid ethyl ester]
  IC50: 16 µM
caspase-3 activity, at 20 uM
  inhibition at 20 µM: 83.9%

## CCOC(=O)c1cnc2c(N)cccc2c1NCCOC [Example 35, 8-Amino-4-(2-methoxy-ethylamino)-quinoline-3-carboxylic acid ethyl ester]
  IC50: 13.6 µM
  inhibitory activity against caspase-3 (in words): superior activity
caspase-3 activity, at 20 uM
  inhibition at 20 µM: 91.5%

## CCOC(=O)c1cnc2c(N)cccc2c1NCc1ccc(C)cc1 [Example 37, 8-Amino-4-(4-methyl-benzylamino)-quinoline-3-carboxylic acid ethyl ester]
  IC50: 15.3 µM
caspase-3 activity, at 20 uM
  inhibition at 20 µM: 82.1%

## CCOC(=O)c1cnc2c(N)cccc2c1NCCc1ccccc1 [Example 38, 8-Amino-4-phenethylamino-quinoline-3-carboxylic acid ethyl ester]
  IC50: 16.6 µM
caspase-3 activity, at 20 uM
  inhibition at 20 µM: 77.2%

## CCOC(=O)c1cnc2c(N)cccc2c1NCCCc1ccccc1 [Example 39, 8-Amino-4-(3-phenyl-propylamino)-quinoline-3-carboxylic acid ethyl ester]
  IC50: 16.4 µM
caspase-3 activity, at 20 uM
  inhibition at 20 µM: 78.8%

## CCOC(=O)c1cnc2c(N)cccc2c1NCCCCc1ccccc1 [Example 40, 8-Amino-4-(4-phenyl-butylamino)-quinoline-3-carboxylic acid ethyl ester]
  IC50: 16.4 µM
caspase-3 activity, at 20 uM
  inhibition at 20 µM: 81.7%

## CCOC(=O)c1cnc2c(N)cccc2c1NCc1ccccc1Cl [Example 41, 8-Amino-4-(2-chloro-benzylamino)-quinoline-3-carboxylic acid ethyl ester]
  IC50: 17.8 µM
caspase-3 activity, at 20 uM
  inhibition at 20 µM: 78.4%

## CCOC(=O)c1cnc2c(N)cccc2c1NCc1ccc(Cl)cc1 [Example 42, 8-Amino-4-(4-chloro-benzylamino)-quinoline-3-carboxylic acid ethyl ester]
  IC50: 17 µM
caspase-3 activity, at 20 uM
  inhibition at 20 µM: 82.9%

## CCOC(=O)c1cnc2c(N)cccc2c1NCc1ccc(Cl)cc1Cl [Example 43, 8-Amino-4-(2,4-dichloro-benzylamino)-quinoline-3-carboxylic acid ethyl ester]
  IC50: 27 µM
caspase-3 activity, at 20 uM
  inhibition at 20 µM: 54.7%

## CCOC(=O)c1cnc2c(N)cccc2c1NCc1cccc(OC)c1OC [Example 44, 8-Amino-4-(2,3-dimethoxy-benzylamino)-quinoline-3-carboxylic acid ethyl ester]
  IC50: 18.1 µM
caspase-3 activity, at 20 uM
  inhibition at 20 µM: 72.1%

## CCCNc1c(C(=O)OCC)cnc2c(N)cccc12 [Example 45, 8-Amino-4-propylamino-quinoline-3-carboxylic acid ethyl ester]
  IC50: 16 µM
caspase-3 activity, at 20 uM
  inhibition at 20 µM: 85%

## CCOC(=O)c1cnc2c(N)cccc2c1NCCc1ccccc1N [Example 46, 8-Amino-4-[2-(2-amino-phenyl)-ethylamino]-quinoline-3-carboxylic acid ethyl ester]
  IC50: 16.2 µM
caspase-3 activity, at 20 uM
  inhibition at 20 µM: 83.8%

## CCOC(=O)c1cnc2c(N)cccc2c1NCc1cc(OC)cc(OC)c1 [Example 47, 8-Amino-4-(3,5-dimethoxy-benzylamino)-quinoline-3-carboxylic acid ethyl ester]
  IC50: 21.2 µM
caspase-3 activity, at 20 uM
  inhibition at 20 µM: 69.3%

## CCCOC(=O)c1cnc2c(N)cccc2c1NCc1ccccn1 [Example 60, 8-Amino-4-[(pyridine-2-ylmethyl)-amino]-quinoline-3-carboxylic acid propyl ester]
caspase-3 activity, at 20 uM
  inhibition at 20 µM: 76.8%

## CC(C)OC(=O)c1cnc2c(N)cccc2c1NCc1ccccn1 [Example 61, 8-Amino-4-[(pyridin-2-ylmethyl)-amino]-quinoline-3-carboxylic acid isopropyl ester]
caspase-3 activity, at 20 uM
  inhibition at 20 µM: 81.4%
